{
  "source": "patent US20090215884A1",
  "about": "“METHOD FOR WOUND HEALING” (priority 2005, published 2009)",
  "key": {"dermal fibroblasts": {"system": "dermal fibroblasts", "assay": "Dermal fibroblast differentiation (α-smooth muscle actin expression)", "type": "cell-based, human", "settings": "absence of TGF-β1", "method": "The effects of PEP005 on dermal fibroblast differentiation to myofibroblasts, was examined by the extent of α-smooth muscle actin expression by the differentiating dermal fibroblasts, following stimulation with TGF-β. Following trypsinization, the dermal fibroblasts were suspended in Fibroblast-Serum Containing Medium, containing 10% fetal calf serum, at a cell density of 2.5×10^4 cells/ml. Aliquots (250 μl/well) of the dermal fibroblast cell suspension were seeded into 8-well chamber slides (VWR International Ltd.) and maintained at 37° C., in a 5% CO2/95% air atmosphere, until approximately 30-40% confluent. […] Various controls (three chamber slide per control) were also established, including (i) Fibroblast-Serum Containing Medium alone, (ii) cells in Fibroblast-Serum Containing Medium (cytokeratin or vimentin 1° Ab control), (iii) cells in Fibroblast-Serum Containing Medium, containing 10 ng/ml TGF-β and 1% DMSO, and (iv) cells in Fibroblast-Serum Containing Medium, containing 1% DMSO.\nThe chamber slides were maintained at 37° C., in a 5% CO2/95% air atmosphere, for 3 days, by which time, the cells had reached approximately 75% confluence. Chamber slides were fixed in 1:1 ice cold, acetone:methanol (300 μl/well) for 20 min and blocked in 1% BSA in PBS, at 4° C., for 1 h. […]"}, "epidermal keratinocytes": {"system": "epidermal keratinocytes", "assay": "Keratinocyte extracellular matrix attachment", "type": "cell-based, human", "method": "Human, adult, epidermal keratinocytes, were purchased cryopreserved from Cascade Biologics Inc., Nottinghamshire, U.K. These cells (>500,000 viable cells/vial) were tested to be >70% viable, with the capacity to proliferate for at least 16 population doublings. The epidermal keratinocytes were cultured in serum-free, EpiLife® Medium (Cascade Biologics Inc.), supplemented with antibiotics (100 U/ml penicillin G sodium, […] streptomycin sulphate and 0.25 μg/ml amphotericin B) and EpiLife® Defined Growth Supplement (EDGS, consisting of purified bovine serum albumin, purified bovine transferring, hydrocortisone, recombinant human insulin-like growth factor type-1, prostaglandin E2 and recombinant human epidermal growth factor, Cascade Biologics Inc.). Epidermal keratinocytes cultures were maintained at 37° C., in a 5% CO2/95% air atmosphere, with the culture medium being changed every 2-3 days. Epidermal keratinocytes were used between 4-6 passages, for all experiments.\nPrior to use, the PEP005/DMSO stock solution was removed from 4° C. storage and warmed to room temperature. […]"}},
  "data": [
    {"smiles": "C/C=C(/C)C(=O)O[C@H]1C(C)=C[C@]23C(=O)[C@@H](C=C(CO)[C@@H](O)[C@]12O)[C@H]1[C@@H](C[C@H]3C)C1(C)C", "note": "[PEP005, ingenol-3-angelate]", "values": [
      {"measurement": "α-smooth muscle actin expression", "setting": "dermal fibroblasts; 1 μg/ml PEP005", "result": "detectable α-smooth muscle actin microfilaments"},
      {"measurement": "α-smooth muscle actin expression", "setting": "dermal fibroblasts; 10 μg/ml PEP005", "result": "detectable α-smooth muscle actin microfilaments"},
      {"measurement": "epidermal keratinocyte attachment to type I collagen", "setting": "epidermal keratinocytes; 0, 01-10 μg/ml PEP005", "result": "significant dose-dependent stimulation"},
      {"measurement": "epidermal keratinocyte attachment to plasma fibronectin", "setting": "epidermal keratinocytes; 1-μg/ml PEP005", "result": "trend towards a possible stimulation"}
    ]}
  ]
}
